Test results as given in the NIST ThermoML archive (doi:10.1016/j.jct.2004.05.009).
Numbers after ± are expanded uncertainties.

Details: Liquid

vapor or sublimation pressure (159.01 K): 13.79 ± 0.3 kPa
vapor or sublimation pressure (182.33 K): 72.13 ± 1.2 kPa
SMILES: Cl [hydrogen chloride]
